Data published in US20060094693A1, “Methods and compositions for treating glucose-associated conditions, metabolic syndrome, dyslipidemias and other conditions” (Point Therapeutics, Inc., priority 2004, published 2006).

How the values were obtained:
Lewis rats = assay: in vivo; conditions: Lewis rats, single dose, 5 days observation
Description: Serum DPP-IV inhibition and observation of acute toxicity of amino boronic dipeptides in Lewis rats. […] After observations were completed or at the onset of a moribund state, humane euthanasia was performed by asphyxiation in 100% CO2.

[1] = target: T1, soluble recombinant human DPP-IV (Homo sapiens, UniProt P27487); assay: In vitro assay of enzymatic activity of recombinant soluble DPP-IV and inhibition by amino boronic dipeptides; type: biochemical; conditions: assayed 3 minutes, 78 minutes and 16 hours after addition of Ala-Pro-AFC
T1 construct: immunoglobulin kappa light chain secretion signal (pSecTag2-B) (N, cleaved yes); made in house; host or cells: 293T cells, transient transfection; unpurified culture supernatant used
T1 sequence (P27487 39-766 limits assumed): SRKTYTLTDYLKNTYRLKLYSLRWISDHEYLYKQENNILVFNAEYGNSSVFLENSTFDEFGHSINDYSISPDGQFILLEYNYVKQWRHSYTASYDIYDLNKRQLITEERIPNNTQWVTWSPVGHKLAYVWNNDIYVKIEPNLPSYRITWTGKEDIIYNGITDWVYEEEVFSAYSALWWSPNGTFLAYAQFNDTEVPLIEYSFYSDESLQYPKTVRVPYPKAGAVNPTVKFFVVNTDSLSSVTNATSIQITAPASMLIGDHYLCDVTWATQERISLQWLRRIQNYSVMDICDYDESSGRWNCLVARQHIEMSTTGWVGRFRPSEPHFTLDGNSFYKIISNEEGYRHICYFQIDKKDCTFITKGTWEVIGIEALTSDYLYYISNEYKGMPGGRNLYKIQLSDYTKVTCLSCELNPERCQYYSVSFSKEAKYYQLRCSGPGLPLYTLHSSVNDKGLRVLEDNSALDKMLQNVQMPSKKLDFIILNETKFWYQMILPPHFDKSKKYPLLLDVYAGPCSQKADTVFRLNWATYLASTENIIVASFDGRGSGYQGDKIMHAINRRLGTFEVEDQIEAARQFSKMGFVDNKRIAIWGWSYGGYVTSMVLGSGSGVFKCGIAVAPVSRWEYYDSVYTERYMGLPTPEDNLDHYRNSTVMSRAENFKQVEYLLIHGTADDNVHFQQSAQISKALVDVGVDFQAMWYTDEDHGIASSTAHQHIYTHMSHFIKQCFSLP
Text: Production of soluble recombinant human DPP-IV. Based on information on the N-terminus of serum DPP-IV (15), a truncated DPP-IV was engineered in which a signal/leader sequence was joined to the residue in DPP-IV corresponding to the N-terminus of serum DPP-IV to allow secretion. The cDNA encoding the desired truncated human DPP-IV dimer enzyme was engineered into the mammalian secretion vector pSecTag2 (Cat# V900-20, InVitrogen Corporation). The vector, available in A, B or C versions, representing three possible phases for gene fusion, contained an immunoglobulin-kappa light chain secretion signal followed by a selection of restriction sites for gene insertion. The fusion required engineering a restriction site upstream of the chosen fusion amino acid in the 5′ end of the DPP-IV dimer enzyme nucleic acid in phase with the chosen restriction site (Sfi I) in the vector secretion sequence. The chosen fusion amino acid in the 5′ end of the DPP-IV (Ser39) was 3′ of the trans-membrane anchoring domain. The pSecTag2 version B and its Sfi I restriction site was chosen for the fusion because it minimizes the additional N-terminal, vector-encoded residues in the mature secreted protein.
Construction of the fusion was as follows. First, total RNA was isolated from the Caco-2 colorectal carcinoma cell line (ATCC HTB-37) by standard Trizol/phenol/chloroform methodology. The purified RNA (approx. 2.5 μg in a 20 μl reaction) was used to make cDNA using oligo-dT primer and a commercial reverse transcription (RT) kit (InVitrogen). […] The following thermal cycler program was used: 94° C. for 45 sec. initial denaturation, then 30 cycles of 94° C., 10 sec.; 48° C., 6 sec.; 60° C., 4 min; followed by 5-min. extension at 72° C. after cycling.
DNA from the plasmid encoding DPP-IV dimer enzyme was prepared on an approximately 400 μg scale from overnight 30 ml cultures in Luria broth with 100 μg ampicillin per ml using a commercial kit (Qiagen Maxiprep Kit).
In vitro assay of enzmatic activity ofrecombinant soluble DPP-IV and inhibition by amino boronic dipeptides. The assay reaction mixture consisted of 135 μl 50 mM HEPES/Na buffer pH 7.6, 140 mM NaCl, 10-15 gl enzyme-containing culture supernatant, dipeptide substrate Ala-Pro-(7-amino-4-trifluoromethyl coumarin) (Ala-Pro-AFC; Enzyme System Products, Dublin, Calif.) at typically 0.1-1 mM added from a 100 or 400 mM stock in dimethyl formamide. The reaction mixture was incubated at room temperature, and production of the fluorescent AFC product was measured in a fluorometer (excitation, 400 nm; emission 505 nm), either by continuous monitoring or after termination with a one to one-tenth volume of 1 -M sodium acetate, pH 4.5. Fluorometric reading were made with a Molecular Dynamics Spectra Max GeminiXS capable of reading 96-well microtiter plates. The inhibitory activity of amino boronic dipeptides was investigated by preincubation of assay reaction mixtures with varying concentrations of each compound for 10 minutes before the addition of the substrate Ala-Pro-AFC.

[2] = tested on: human bone marrow stromal cells; assay: G-CSF supernatant levels in human bone marrow stromal cell cultures; type: cell-based; conditions: 1 to 10^4 nM, 24 hours
Description: Human bone marrow stromal cell cultures. Samples of normal human bone marrow were purchased from Cambrex Bioproducts (Walkersville, Md.) and mononuclear cells were purified over Ficoll-Hypaque (Nycomed, Oslo, Norway). Human stromal layers were established by seeding 4×10^7 mononuclear cells into T75 flasks (Corning) containing 20 ml MyeloCult medium (Stem Cell Technologies, Vancouver, BC) supplemented with 10^−6 M hydrocortisone (Sigma) and incubation at 37° C. in 100% humidified 5% CO2 in air. After one week, half the medium was exchanged, and the cultures incubated for approximately one week more, after which time, a semi-confluent cell layer was formed. Stromal cells were harvested by trypsinization using standard technique and 10^5 cells/well were seeded in multi-well plates in 1 ml of fully supplemented DMEM (InVitrogen, Carlsbad, Calif.). […] Multiwell cultures without the addition of amino boronic dipeptides served as controls. […] Supernatant concentrations of human G-CSF were determined by Quantikine enzyme-linked immunosorbent assay (ELISA; R&D Systems, Minneapolis, Minn.) according to the manufacturer's instructions. […] The effect of each amino boronic dipeptide on the level of supernatant G-CSF was determined by calculating a stimulation index (SI): SI=(mean G-CSF concentration in culture with amino boronic dipeptide)/(mean G-CSF concentration in control culture).

serum KC/CXCL1 = assay: Serum KC/CXCL1 levels in vivo (ELISA); design: species or system BALB/c mice; conditions: 0.2-200 μg/mouse oral, 2 hours
Description: Assay ofserum DPP-IV inhibition and KC/CXCL1 levels in vivo. […] Each mouse received a single administration of each amino boronic dipeptide or saline, and blood samples were withdrawn from mice 2 hours later.
Serum concentration of mouse KC/CXCL1 was determined by Quantikine enzyme-linked immunosorbent assay (ELISA; R&D Systems, Minneapolis, Minn.) according to the manufacturer's instructions. ELISA was performed in duplicate for each sample.

DPP-IV = DPP-IV (Homo sapiens, UniProt P27487); conditions: in vivo; cited from earlier work
Chain of DPP-IV (P27487 whole entry, species assumed): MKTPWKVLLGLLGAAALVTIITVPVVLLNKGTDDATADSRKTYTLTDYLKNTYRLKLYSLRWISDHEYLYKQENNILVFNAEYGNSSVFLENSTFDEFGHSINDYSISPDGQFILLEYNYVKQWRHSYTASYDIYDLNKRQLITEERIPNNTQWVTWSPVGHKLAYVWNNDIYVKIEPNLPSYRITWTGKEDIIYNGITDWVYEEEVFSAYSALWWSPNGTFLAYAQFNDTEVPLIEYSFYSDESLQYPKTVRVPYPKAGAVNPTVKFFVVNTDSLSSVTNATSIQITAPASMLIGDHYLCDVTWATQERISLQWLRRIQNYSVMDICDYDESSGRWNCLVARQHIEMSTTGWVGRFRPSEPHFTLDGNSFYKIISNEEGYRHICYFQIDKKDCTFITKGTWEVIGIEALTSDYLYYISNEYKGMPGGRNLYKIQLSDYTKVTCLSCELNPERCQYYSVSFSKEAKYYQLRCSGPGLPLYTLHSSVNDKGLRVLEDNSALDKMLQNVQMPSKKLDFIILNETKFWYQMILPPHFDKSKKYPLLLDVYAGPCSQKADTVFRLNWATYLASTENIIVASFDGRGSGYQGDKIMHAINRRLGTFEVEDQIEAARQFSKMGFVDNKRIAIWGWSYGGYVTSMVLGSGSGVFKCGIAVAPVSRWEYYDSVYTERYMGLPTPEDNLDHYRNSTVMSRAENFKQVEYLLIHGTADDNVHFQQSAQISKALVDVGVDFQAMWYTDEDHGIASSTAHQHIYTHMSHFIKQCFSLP

serum DPP-IV = target: T2, serum DPP-IV (Rattus norvegicus, UniProt P14740); assay: Serum DPP-IV inhibition in Lewis rats; type: in vivo; conditions: single oral administration, 2 hours
T2 construct: from tissue; host or cells: serum of Lewis rats dosed with the compounds
T2 sequence (P14740 37-767 limits assumed): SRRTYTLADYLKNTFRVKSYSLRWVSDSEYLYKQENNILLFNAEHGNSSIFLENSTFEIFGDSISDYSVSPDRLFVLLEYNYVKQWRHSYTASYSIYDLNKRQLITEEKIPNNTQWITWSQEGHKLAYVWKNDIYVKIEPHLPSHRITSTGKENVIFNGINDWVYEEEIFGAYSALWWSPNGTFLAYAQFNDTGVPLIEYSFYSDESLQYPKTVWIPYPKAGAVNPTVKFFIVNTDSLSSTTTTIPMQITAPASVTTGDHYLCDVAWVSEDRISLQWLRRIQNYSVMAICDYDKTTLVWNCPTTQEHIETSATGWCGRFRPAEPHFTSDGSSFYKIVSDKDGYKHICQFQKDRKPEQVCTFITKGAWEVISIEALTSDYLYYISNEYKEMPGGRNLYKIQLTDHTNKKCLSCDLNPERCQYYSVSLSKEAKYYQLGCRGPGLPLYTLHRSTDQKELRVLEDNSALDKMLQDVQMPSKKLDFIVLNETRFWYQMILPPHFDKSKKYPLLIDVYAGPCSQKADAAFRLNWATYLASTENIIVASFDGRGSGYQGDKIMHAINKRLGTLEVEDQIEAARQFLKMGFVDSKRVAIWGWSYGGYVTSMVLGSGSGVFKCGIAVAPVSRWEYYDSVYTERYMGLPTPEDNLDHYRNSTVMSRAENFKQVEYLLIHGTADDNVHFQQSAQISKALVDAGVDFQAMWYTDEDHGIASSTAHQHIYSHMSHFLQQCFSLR
Description: Assay of serum DPP-IV inhibition in vivo. […] DPP-IV activity was determined by reaction of 10 μl serum with 90 μl of 0.11 mM Ala-Pro-AFC (Enzyme System Products, Dublin, Calif.) in 50 mM HEPES/Na buffer pH 7.6, 140 mM NaCl.

[3] = tested on: Zucker Diabetic Fatty (ZDF) rats; assay: 6 week glycemic control study in Zucker Diabetic Fatty rats; type: in vivo; conditions: Metformin group, day 14-15
Description: The design of the 6 week long study is depicted in FIG. 8. 60 male Zucker Diabetic Fatty (ZDF) rats (5 weeks of age) were obtained from Charles River Labs. The animals are housed singly and allowed to acclimatize for 1 week before the initiation of the study. 24-hour food intake and body weight was measured gravimetrically twice weekly from the start of housing. HbA1C levels were measured at Day 0, 7, 14, 28 and 46. OGTT was administered on Day 2-3, 15 minutes after the administration of the drugs. OGTT was administered again at the end of the study but in this case, drugs were given 15 hours prior to the OGTT. The 24-hour glucose profile was monitored at day 14-15 of the study.
The insulin sensitivity index was calculated at the termination of the study according to the method described by Matsuda and DeFronzo (Diabetes Care. 1999 Sep.;22(9):1462-70).

O=C(C1CCCN1)N1CCCC1B(O)O (stereo not shown) [Pro-boroPro]
MTD (maximum tolerated dose) (Lewis rats): ≧2,000 μg/kg
persistence of DPP-IV inhibition after preincubation [1]: more rapidly reversible

CC[C@H](C)[C@H](N)C(=O)N1CCC[C@H]1B(O)O [Ile-boroPro]
MTD (maximum tolerated dose) (Lewis rats): 120 µg/kg
persistence of DPP-IV inhibition after preincubation [1]: sustained DPP-IV inhibition
supernatant G-CSF level (stimulation index) [2]: stimulate increased levels of G-CSF
serum levels of KC/CXCL1 (serum KC/CXCL1): stimulate increased serum levels of KC/CXCL1 in a dose-dependent manner

NCCCC[C@H](N)C(=O)N1CCC[C@H]1B(O)O [Lys-boroPro]
MTD (maximum tolerated dose) (Lewis rats): ≧2,000 μg/kg
persistence of DPP-IV inhibition after preincubation [1]: more rapidly reversible

NC(N)=NCCC[C@H](N)C(=O)N1CCC[C@H]1B(O)O [Arg-boroPro]
MTD (maximum tolerated dose) (Lewis rats): ≧2,000 μg/kg
persistence of DPP-IV inhibition after preincubation [1]: more rapidly reversible

NC(=O)CC[C@H](N)C(=O)N1CCC[C@H]1B(O)O [Gln-boroPro]
MTD (maximum tolerated dose) (Lewis rats): ≧800 μg/kg

N[C@@H](CO)C(=O)N1CCC[C@H]1B(O)O [Ser-boroPro]
MTD (maximum tolerated dose) (Lewis rats): 4,000 μg/kg

CSCC[C@H](N)C(=O)N1CCC[C@H]1B(O)O [Met-boroPro]
MTD (maximum tolerated dose) (Lewis rats): 160 µg/kg

C[C@H](N)C(=O)N1CCC[C@H]1B(O)O [Ala-boroPro]
MTD (maximum tolerated dose) (Lewis rats): ≧2,000 μg/kg

CC(C)C[C@H](N)C(=O)N1CCC[C@H]1B(O)O [Leu-boroPro]
MTD (maximum tolerated dose) (Lewis rats): 200 µg/kg
persistence of DPP-IV inhibition after preincubation [1]: more rapidly reversible
supernatant G-CSF level (stimulation index) [2]: stimulate increased levels of G-CSF
serum levels of KC/CXCL1 (serum KC/CXCL1): stimulate increased serum levels of KC/CXCL1 in a dose-dependent manner

C[C@@H](O)[C@H](N)C(=O)N1CCC[C@H]1B(O)O [Thr-boroPro]
MTD (maximum tolerated dose) (Lewis rats): 800 µg/kg

gastric inhibitory protein [GIP]
t1/2 of N-terminal degradation (DPP-IV): ~1 min

N[C@@H](Cc1ccccc1)C(=O)N1CCC[C@H]1B(O)O [Phe-boroPro]
persistence of DPP-IV inhibition after preincubation [1]: more rapidly reversible

CC(C)[C@H](N)C(=O)N1CCC[C@H]1B(O)O [Val-boroPro]
MTD (maximum tolerated dose) (Lewis rats): 20 µg/kg
ID50 (dose causing 50% reduction in serum DPP-IV activity) (serum DPP-IV): 0.009 mg/kg
serum levels of KC/CXCL1 (serum KC/CXCL1): stimulate increased serum levels of KC/CXCL1 in a dose-dependent manner

CN(C)C(=N)N=C(N)N [Metformin, reference compound]
AUC of 24 hour glucose profile [3]: achieve significance
